Assay results as given in patent publication US20140105837A1, “NOVEL ARYL C-XYLOSIDE COMPOUNDS, AND COSMETIC USE” (L'OREAL, priority 2008, published 2014).

Assays:
Assay type in all cases: cell-based
keratinocytes [1] = assay: Sulfated glycosaminoglycan synthesis on keratinocytes (35S-sulfate radioactive label incorporation); settings: for % glycosaminoglycan synthesis relative to the control: control = 100; for Mean value (incorporated radioactivity, sulfated GAGs): n=3
Method: (§1) Study of the effect of C-glycoside derivatives on sulfated glycosaminoglycan synthesis on fibroblasts and on keratinocytes:
(§2) The study is carried out by measuring the incorporation of radioactive glucosamine into the matrix neosynthesized by cultures of normal human dermal fibroblasts or by keratinocytes. The incorporation of radioactive glucosamine indicates specific neosynthesis of glycosaminoglycans via an incorporation of the acetylated form of this glucosamine.
The keratinocyte cultures are performed in keratinocyte-SFM medium sold by the company Gibco, in the presence of EGF (Epidermal Growth Factor) (0.25 ng/ml), of pituitary extract (25 μg/ml) and of gentamycin (25 μg/ml).
The fibroblasts and the keratinocytes were cultured in 96-well plates. At confluence, the culture medium was replaced with suitable culture medium containing or not containing (control) the test compound or the reference, and then the cells were incubated for 48 hours. The 35S-sulfate radioactive label was added (40 μCi final concentration) and the cells were incubated for a further 24 hours. […]
(§3) The extracellular matrix glycosaminoglycans were extracted with one volume of chaotropic buffer (50 mM Tris/HCl, 4 M guanidine, 5 mM, EDTA, pH 8.0). The sulfated GAGs were purified by ion exchange chromatography: absorption of the anionic molecules onto Q-Sepharose beads under high-stringency conditions, desorption of the molecules which are not very anionic and molecules which are moderately anionic, with a 6 M urea solution containing […] NaCl, and then washing.
(§4) The radioactivity incorporated into the highly […] molecules that have remained on the support (predominantly GAGs) was measured by liquid scintillation.
(§5) The results are evaluated relative to a control consisting of cells which have not been treated with a compound of formula (I).
A positive control (CaCl2 at 1.4 mM) known to stimulate GAG synthesis is introduced into the test carried out on keratinocytes, as a positive reference.
(§6) The results are expressed as percentage variation in glycosaminoglycan synthesis relative to the control.

[2] = system: normal human dermal fibroblasts; assay: Sulfated glycosaminoglycan synthesis on fibroblasts (35S-sulfate radioactive label incorporation); settings: other experimental plan, n=2
[3] = system: normal human dermal fibroblasts; assay: as above; settings: for % glycosaminoglycan synthesis relative to the control / Mean value (incorporated radioactivity, sulfated GAGs): fibroblasts; for % glycosaminoglycan synthesis relative to the control: control = 100; for Effectiveness for increasing sulfated GAG synthesis (in words): summary of the tests on fibroblasts and keratinocytes; for Mean value (incorporated radioactivity, sulfated GAGs): n=3
Method: as §1, §2
The fibroblast cultures are performed according to conventional cell culture methods, namely in DMEM medium sold by the company Gibco, in the presence of L-glutamine (2 mM), of penicillin (50 IU/ml) and of 10% of fetal calf serum (Gibco).
The fibroblasts and the keratinocytes were cultured in 96-well plates. At confluence, the culture medium was replaced with suitable culture medium containing or not containing (control) the test compound or the reference, and then the cells were incubated for 48 hours. The 35S-sulfate radioactive label was added (40 μCi final concentration) and the cells were incubated for a further 24 hours. All the conditions were carried out 3 times.
as §3, §4, §5
A positive control (TGFβ at 10 ng/ml) known to stimulate GAG synthesis is introduced into the test carried out on fibroblasts, as a positive reference.
as §6

keratinocytes [4] = assay: Sulfated glycosaminoglycan synthesis on keratinocytes (35S-sulfate radioactive label incorporation); settings: other experimental plan, n=2
[5] = 0.1 mM, other experimental plan

## OC(CCc1ccccc1)CC1OC[C@@H](O)[C@H](O)[C@H]1O (stereo partly drawn) [Compound 9, 1-(α,β)-D-xylopyranosyl-4-phenylbutan-2-ol]
Keratinocytes [1]; 0.1 μM, other experimental plan
  % glycosaminoglycan synthesis relative to the control: 563%
Keratinocytes [1]; 1 μM, other experimental plan
  % glycosaminoglycan synthesis relative to the control: 547%
[2]; 0.1 mM
  Mean value (incorporated radioactivity, sulfated GAGs): 10838 cpm
[2]; 1 mM
  Mean value (incorporated radioactivity, sulfated GAGs): 23620 cpm
[3]; [5]
  % glycosaminoglycan synthesis relative to the control: 430%
[3]; 1 mM, other experimental plan
  % glycosaminoglycan synthesis relative to the control: 938%
[3]
  Effectiveness for increasing sulfated GAG synthesis (in words): highly effective
Keratinocytes [4]; 0.1 μM
  Mean value (incorporated radioactivity, sulfated GAGs): 24106 cpm
Keratinocytes [4]; 1 μM
  Mean value (incorporated radioactivity, sulfated GAGs): 99041 cpm

## TGFβ: positive control known to stimulate GAG synthesis, used at 10 ng/ml on fibroblasts [reference compound]
[3]; TGFβ at 10 ng/ml
  % glycosaminoglycan synthesis relative to the control: 174%
  Mean value (incorporated radioactivity, sulfated GAGs): 4062 cpm

## Oc1ccccc1CCC(O)CC1OC[C@@H](O)[C@H](O)[C@H]1O (stereo partly drawn) [Compound 8, 1-(α,β)-D-xylopyranosyl-4-(2-hydroxyphenyl)butan-2-ol]
Keratinocytes [1]; [5]
  % glycosaminoglycan synthesis relative to the control: 316%
Keratinocytes [1]; 1 mM, other experimental plan
  % glycosaminoglycan synthesis relative to the control: 665%
[2]; 0.1 mM
  Mean value (incorporated radioactivity, sulfated GAGs): 2938 cpm
[2]; 1 mM
  Mean value (incorporated radioactivity, sulfated GAGs): 10371 cpm
[3]; [5]
  % glycosaminoglycan synthesis relative to the control: 117%
[3]; 1 mM, other experimental plan
  % glycosaminoglycan synthesis relative to the control: 412%
[3]
  Effectiveness for increasing sulfated GAG synthesis (in words): highly effective
Keratinocytes [4]; 0.1 mM
  Mean value (incorporated radioactivity, sulfated GAGs): 40552 cpm
Keratinocytes [4]; 1 mM
  Mean value (incorporated radioactivity, sulfated GAGs): 85456 cpm

## COc1cc(CCC(O)CC2OC[C@@H](O)[C@H](O)[C@H]2O)ccc1O (stereo partly drawn) [Compound 1, 1-(α,β)-D-xyopyranosyl-4-(4-hydroxy-3-methoxyphenyl)butan-2-ol]
Keratinocytes [1]; 0.37 mM
  % glycosaminoglycan synthesis relative to the control: 707%
  Mean value (incorporated radioactivity, sulfated GAGs): 31999 cpm
Keratinocytes [1]; 1.1 mM
  % glycosaminoglycan synthesis relative to the control: 813%
  Mean value (incorporated radioactivity, sulfated GAGs): 36795 cpm
[3]; 40 μM
  % glycosaminoglycan synthesis relative to the control: 351%
  Mean value (incorporated radioactivity, sulfated GAGs): 8130 cpm
[3]; 120 μM
  % glycosaminoglycan synthesis relative to the control: 657%
  Mean value (incorporated radioactivity, sulfated GAGs): 15318 cpm
[3]
  Effectiveness for increasing sulfated GAG synthesis (in words): highly effective
[3]; listed as example 2
  Effectiveness for increasing sulfated GAG synthesis (in words): very effective

## [Ca+2].[Cl-].[Cl-] [CaCl2, reference compound]
Keratinocytes [1]; CaCl2 at 1.4 mM
  % glycosaminoglycan synthesis relative to the control: 117%
  Mean value (incorporated radioactivity, sulfated GAGs): 5273 cpm
